What is called IC50 is the concentration at which inhibition is half-maximal.

Among the data in patent publication US12440481B2, “Esters and carbamates as modulators of sodium channels” (VERTEX PHARMACEUTICALS INCORPORATED, priority 2019, dated 2025) are IC50 values, retold here.

Sequence of human NaV 1.8 (Q9Y5Y9 whole entry, looked up, the tested form may be a part): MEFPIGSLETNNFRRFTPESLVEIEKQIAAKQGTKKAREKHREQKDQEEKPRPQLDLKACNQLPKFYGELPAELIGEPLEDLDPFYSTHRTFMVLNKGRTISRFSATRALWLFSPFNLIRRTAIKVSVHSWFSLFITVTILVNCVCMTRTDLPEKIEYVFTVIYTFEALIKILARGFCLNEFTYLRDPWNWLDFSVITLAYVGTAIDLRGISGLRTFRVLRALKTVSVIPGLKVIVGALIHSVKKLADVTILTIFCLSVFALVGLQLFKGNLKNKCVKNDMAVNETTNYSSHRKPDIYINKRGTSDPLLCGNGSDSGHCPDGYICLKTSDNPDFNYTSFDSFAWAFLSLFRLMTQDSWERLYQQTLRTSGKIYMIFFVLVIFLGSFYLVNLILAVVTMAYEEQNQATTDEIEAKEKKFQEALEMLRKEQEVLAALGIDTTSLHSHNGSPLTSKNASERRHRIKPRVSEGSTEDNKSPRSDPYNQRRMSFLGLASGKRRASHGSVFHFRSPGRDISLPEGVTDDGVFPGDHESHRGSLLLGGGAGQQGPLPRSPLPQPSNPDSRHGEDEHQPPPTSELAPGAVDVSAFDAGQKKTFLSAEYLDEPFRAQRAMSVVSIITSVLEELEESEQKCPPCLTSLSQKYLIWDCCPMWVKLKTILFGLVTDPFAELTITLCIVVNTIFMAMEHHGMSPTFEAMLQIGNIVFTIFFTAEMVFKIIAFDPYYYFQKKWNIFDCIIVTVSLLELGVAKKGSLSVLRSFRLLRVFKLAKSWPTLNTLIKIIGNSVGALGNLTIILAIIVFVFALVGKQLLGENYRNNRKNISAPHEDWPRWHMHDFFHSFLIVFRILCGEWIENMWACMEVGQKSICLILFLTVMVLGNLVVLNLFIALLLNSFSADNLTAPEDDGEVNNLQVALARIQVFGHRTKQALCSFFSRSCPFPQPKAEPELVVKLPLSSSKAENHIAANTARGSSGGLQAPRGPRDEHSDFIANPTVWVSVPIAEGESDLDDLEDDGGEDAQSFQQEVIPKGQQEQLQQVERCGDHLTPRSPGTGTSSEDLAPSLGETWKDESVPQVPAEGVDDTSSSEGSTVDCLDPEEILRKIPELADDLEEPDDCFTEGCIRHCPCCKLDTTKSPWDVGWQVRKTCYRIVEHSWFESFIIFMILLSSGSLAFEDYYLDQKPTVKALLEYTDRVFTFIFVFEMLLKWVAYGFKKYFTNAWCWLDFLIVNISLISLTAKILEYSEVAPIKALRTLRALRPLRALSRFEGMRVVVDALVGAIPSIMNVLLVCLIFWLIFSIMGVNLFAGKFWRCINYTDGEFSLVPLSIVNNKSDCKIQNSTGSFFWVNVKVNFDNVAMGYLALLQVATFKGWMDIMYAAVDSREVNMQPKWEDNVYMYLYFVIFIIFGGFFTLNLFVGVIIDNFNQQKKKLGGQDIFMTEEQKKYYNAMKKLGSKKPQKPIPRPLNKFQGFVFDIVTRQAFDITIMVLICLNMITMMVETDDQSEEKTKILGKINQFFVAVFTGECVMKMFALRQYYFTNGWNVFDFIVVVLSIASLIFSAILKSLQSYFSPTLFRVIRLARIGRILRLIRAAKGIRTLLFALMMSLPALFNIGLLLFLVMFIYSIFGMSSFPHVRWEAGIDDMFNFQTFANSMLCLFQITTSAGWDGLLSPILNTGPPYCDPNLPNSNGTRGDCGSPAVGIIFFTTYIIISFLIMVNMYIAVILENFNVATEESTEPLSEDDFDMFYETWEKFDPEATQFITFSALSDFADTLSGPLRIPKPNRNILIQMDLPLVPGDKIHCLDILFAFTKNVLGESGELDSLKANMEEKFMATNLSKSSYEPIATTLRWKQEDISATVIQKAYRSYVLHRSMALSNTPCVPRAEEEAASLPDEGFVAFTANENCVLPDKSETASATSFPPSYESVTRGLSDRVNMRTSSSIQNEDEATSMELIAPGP

The test addresses human NaV 1.8 (Homo sapiens, UniProt Q9Y5Y9). Briefly: E-VIPR Assay for Detecting and Measuring NaV Inhibition Properties. It is filed as cell-based. The conditions noted are these: HEK cells expressing a truncated form of human NaV 1.8; HS = human serum; read-out: EVIPR HS IC50. From the text:
E-VIPR Assay for Detecting and Measuring NaV Inhibition Properties
Sodium ion channels are voltage-dependent proteins that can be activated by inducing membrane voltage changes by applying electric fields. The electrical stimulation instrument and methods of use, referred to as E-VIPR, are described in International Publication No. WO 2002/008748 A3 and C.-J. Huang et al. Characterization of voltage-gated sodium channel blockers by electrical stimulation and fluorescence detection of membrane potential, 24 Nature Biotech. 439-46 (2006), both of which are incorporated by reference in their entirety. The instrument comprises a microtiter plate handler, an optical system for exciting the coumarin dye while simultaneously recording the coumarin and oxonol emissions, a waveform generator, a current- or voltage-controlled amplifier, and parallel electrode pairs that are inserted into assay plate wells. Under integrated computer control, this instrument passes user-programmed electrical stimulus protocols to cells within the wells of the microtiter plate.
16-20 hours prior to running the assay on E-VIPR, HEK cells expressing a truncated form of human NaV 1.8 with full channel activity were seeded into microtiter 384-well plates, pre-coated with matrigel, at a density of 25,000 cells per well. 2.5-5% KIR2.1 Bacmam virus was added to the final cell suspension before seeding into cell plates. HEK cells were grown in Dulbecco's Modified Eagle's Medium (DMEM) supplemented with 10% FBS (Fetal Bovine Serum, qualified; Sigma #F4135), 1% NEAA (Non-Essential Amino Acids, Gibco #11140), 1% HEPES (Gibco #15630), 1% Pen-Strep (Penicillin-Streptomycin; Gibco #15140) and 5 μg/ml Blasticidin (Gibco #R210-01). Cells were expanded in vented cap cell culture flasks, with 90-95% humidity and 5% CO2.
Reagents and Stock Solutions:
• 100 mg/mL Pluronic F-127 (Sigma #P2443), in dry DMSO • Compound Plates: Corning 384-well Polypropylene Round Bottom #3656 • Cell Plates: 384-well tissue culture treated plates (Greiner #781091-1B) • 2.5-5% KIR 2.1 Bacmam virus (produced in-house), prepared as described in Section 3.3 of J. A. Fornwald et al., Gene Expression in Mammalian Cells Using BacMam, a Modified Baculovirus System, 1350 Methods in Molecular Biology 95-116 (2016), the entire contents of which are incorporated by reference. The concentration used can be dependent on viral titer of each batch. • 5 mM DiSBAC6 (3), a voltage sensitive oxonol acceptor (CAS number 169211-44-3; 5-[3-(1,3-dihexylhexahydro-4,6-dioxo-2-thioxo-5-pyrimidinyl)-2-propen-1-ylidene]-1,3-dihexyldihydro-2-thioxo-4,6(1H,5H)-pyrimidinedione), in dry DMSO. The preparation of DiSBAC6 (3) is analogous to that of DiSBAC4 (3) as described in Voltage Sensing by Fluorescence Resonance Energy Transfer in Single Cells, Gonzalez, J. E. and Tsien, R. Y. (1995) Biophys. J. 69, 1272-1280. • 5 mM CC2-DMPE, a commercially available membrane-bound coumarin phospholipid FRET donor (ThermoFisher Scientific catalog number K1017, CAS number 393782-57-5; tetradecanoic acid, 1,1′-[(1R)-1-[8-(6-chloro-7-hydroxy-2-oxo-2H-1-benzopyran-3-yl)-3-hydroxy-3-oxido-8-oxo-2,4-dioxa-7-aza-3-phosphaoct-1-yl]-1,2-ethanediyl] ester) was prepared in dry DMSO. […]
For the compound `COC(=O)c1ccc(NC(=O)c2c(Oc3ccc(OC(F)(F)F)cc3)ccc(C(F)(F)F)c2F)cn1` [Compound 13, methyl 5-[[2-fluoro-6-[4-(trifluoromethoxy)phenoxy]-3-(trifluoromethyl)benzoyl]amino]pyridine-2-carboxylate], the IC50 is at least 1000 nM.
As for `COC(=O)c1nccc(NC(=O)c2c(Oc3ccc(OC(F)(F)F)c(F)c3OC)ccc(C(F)(F)F)c2C)c1F` [Compound 31, methyl 3-fluoro-4-(6-(3-fluoro-2-methoxy-4-(trifluoromethoxy)phenoxy)-2-methyl-3-(trifluoromethyl)benzamido)picolinate], the half-inhibitory concentration (IC50) was at least 1000 nM.
As for `[2H]C([2H])([2H])Oc1cc(OC(F)(F)F)ccc1Oc1ccc(C(F)(F)F)cc1C(=O)Nc1ccnc(C(=O)OC)c1` [Compound 8, methyl 4-[[2-[2-(trideuteriomethoxy)-4-(trifluoromethoxy)phenoxy]-5-(trifluoromethyl)benzoyl]amino]pyridine-2-carboxylate], the IC50 was 500 to 1000 nM.
The figure for `COC(=O)c1ccc(NC(=O)c2c(Oc3ccc(OC(F)(F)F)c(F)c3OC)ccc(C(F)(F)F)c2F)cn1` [Compound 14, Methyl 5-[[2-fluoro-6-[3-fluoro-2-methoxy-4-(trifluoromethoxy)phenoxy]-3-(trifluoromethyl)benzoyl]amino]pyridine-2-carboxylate] is 100 to 500 nM; for `[2H]C([2H])([2H])Oc1cc(OC(F)(F)F)ccc1Oc1cc(C(F)(F)F)c(F)cc1C(=O)Nc1ccnc(C(=O)OC)c1` [Compound 6, methyl 4-[[5-fluoro-2-[2-(trideuteriomethoxy)-4-(trifluoromethoxy)phenoxy]-4-(trifluoromethyl)benzoyl]amino]pyridine-2-carboxylate] it is 100 to 500 nM; for `[2H]C([2H])([2H])Oc1cc(OC(F)(F)F)ccc1Oc1ccc(C(F)(F)F)cc1C(=O)Nc1ccc(C(=O)OC)nc1` [Compound 12, methyl 5-[[2-[2-(trideuteriomethoxy)-4-(trifluoromethoxy)phenoxy]-5-(trifluoromethyl)benzoyl]amino]pyridine-2-carboxylate] it is at least 1000 nM.
The figure for `COC(=O)c1cc(NC(=O)c2c(Oc3ccc(OC(F)(F)F)c(F)c3C)ccc(C(F)(F)F)c2C)c(C)cn1` [Compound 16, Methyl 4-[[6-[3-fluoro-2-methyl-4-(trifluoromethoxy)phenoxy]-2-methyl-3-(trifluoromethyl)benzoyl]amino]-5-methyl-pyridine-2-carboxylate] is below 100 nM.
The figure for `COC(=O)c1cc(NC(=O)c2c(Oc3ccc(OC(F)(F)F)cc3OC)ccc(C(F)(F)F)c2F)c(C2CC2)cn1` [Compound 26, methyl 5-cyclopropyl-4-(2-fluoro-6-(2-methoxy-4-(trifluoromethoxy)phenoxy)-3-(trifluoromethyl)benzamido)picolinate] is at least 1000 nM.
Turning to `COC(=O)c1nccc(NC(=O)c2c(Oc3ccc(OC(F)(F)F)cc3OC)ccc(C(F)(F)F)c2C)c1C` [Compound 33, methyl 4-(6-(2-methoxy-4-(trifluoromethoxy)phenoxy)-2-methyl-3-(trifluoromethyl)benzamido)-3-methylpicolinate], the IC50 is at least 1000 nM.
The figure for `COC(=O)c1cc(NC(=O)c2c(Oc3ccc(OC(F)(F)F)cc3)ccc(C(F)(F)F)c2F)ccn1` [Compound 3, methyl 4-[[2-fluoro-6-[4-(trifluoromethoxy)phenoxy]-3-(trifluoromethyl)benzoyl]amino]pyridine-2-carboxylate] is 100 to 500 nM.
